Experimental data published in US4416884A, “Piperazinylbenzoheterocyclic compounds” (Otsuka Pharmaceutical Co., Ltd., priority 1978, dated 1983).
≈ marks a conversion by molar mass, not a printed value. Like-named read-outs stand apart in the source and are kept apart here.

What was measured:
Test in all cases: antimicrobial activity, serial dilution method on agar plate
Format in all cases: cell-based
Escherichia Coli NIHJ = settings: read-out: Minimum Inhibitory Concentration
Description: (§1) The antimicrobial activity of the following test compounds on various test organisms listed below was determined by the serial dilution method on agar plate (Heart Infusion agar produced by Difco Co.) (see CHEMOTHERAPY 22, pp. 1126-1128 (1974)), and the minimum inhibitory concentrations (mcg/ml) obtained are shown in Table 1 below.
(§2) A sample of each test organism was prepared so that the population of the organism was 1×10^8 cells/ml (O.D. 660 mμ=0.07 to 0.16) and 1×10^6 cells/ml (which was obtained by diluting the above 1×10^8 cells/ml preparation).

Klebsiella pneumoniae = settings: read-out: Minimum Inhibitory Concentration
Description: as §1, §2

Proteus rettgeri NIH 96 = settings: Providencia rettgeri, read-out: Minimum Inhibitory Concentration
Description: as §1, §2

[1] = tested on: Pseudomonas aeruginosa ATCC 10145; settings: read-out: Minimum Inhibitory Concentration
Description: as §1, §2

[2] = tested on: Pseudomonas aeruginosa E-2; settings: read-out: Minimum Inhibitory Concentration
Description: as §1, §2

[3] = tested on: Pseudomonas aeruginosa NCTC 10490; settings: read-out: Minimum Inhibitory Concentration
Description: as §1, §2

[4] = tested on: Salmonella typhi 0-901 (NCTC 8393); settings: Salmonella enterica
Description: as §1, §2

[5] = tested on: Serattia marcescens IFO 12648; settings: read-out: Minimum Inhibitory Concentration
Description: as §1, §2

Shigella Sonnei EW 33 = settings: read-out: Minimum Inhibitory Concentration
Description: as §1, §2

[6] = tested on: Staphylococcus aureus FDA 209 P; settings: read-out: Minimum Inhibitory Concentration
Description: as §1, §2

[7] = tested on: Streptococcus pyogenes IID S-23; settings: read-out: Minimum Inhibitory Concentration
Description: as §1, §2

[8] = NIH96, inoculum 1 × 10^8 cells/ml
[9] = ATCC10145, inoculum 1 × 10^8 cells/ml
[10] = NCTC10490, inoculum 1 × 10^8 cells/ml
[11] = read-out: Minimum Inhibitory Concentration, inoculum 1 × 10^8 cells/ml
[12] = FDA209, inoculum 1 × 10^8 cells/ml

Compound `CC1Cc2c(Cl)ccc3c(=O)c(C(=O)O)cn1c23` (stereo not drawn) [G] has an MIC (Escherichia Coli NIHJ; inoculum 1 × 10^6 cells/ml) of 0.4 µg/mL (≈ 1.52 µM), an MIC (Escherichia Coli NIHJ; inoculum 1 × 10^8 cells/ml) of 0.8 µg/mL (≈ 3.03 µM) and an MIC (Klebsiella pneumoniae; inoculum 1 × 10^6 cells/ml) of 1.6 µg/mL (≈ 6.07 µM). For the same compound, the MIC (Klebsiella pneumoniae; inoculum 1 × 10^8 cells/ml) was 3.1 µg/mL (≈ 11.8 µM), the MIC (Proteus rettgeri NIH 96; NIH96, inoculum 1 × 10^6 cells/ml) was 0.2 µg/mL (≈ 0.758 µM) and the MIC (Proteus rettgeri NIH 96; [8]) was 0.4 µg/mL (≈ 1.52 µM). It also gave an MIC ([1]; ATCC10145, inoculum 1 × 10^6 cells/ml) of 25 µg/mL (≈ 94.8 µM), an MIC [1, 9] of 50 µg/mL (≈ 190 µM) and an MIC ([2]; E2, inoculum 1 × 10^6 cells/ml) of 50 µg/mL (≈ 190 µM). For the same compound, the MIC ([2]; E2, inoculum 1 × 10^8 cells/ml) was 100 µg/mL (≈ 379 µM), the MIC ([3]; NCTC10490, inoculum 1 × 10^6 cells/ml) was 12.5 µg/mL (≈ 47.4 µM) and the MIC [3, 10] was 25 µg/mL (≈ 94.8 µM). For the same compound, the MIC ([4]; read-out: Minimum Inhibitory Concentration, inoculum 1 × 10^6 cells/ml) was 0.8 µg/mL (≈ 3.03 µM), the MIC [4, 11] was 0.8 µg/mL (≈ 3.03 µM) and the MIC ([5]; inoculum 1 × 10^6 cells/ml) was 1.6 µg/mL (≈ 6.07 µM). For the same compound, the MIC ([5]; inoculum 1 × 10^8 cells/ml) was 3.1 µg/mL (≈ 11.8 µM), the MIC (Shigella Sonnei EW 33; inoculum 1 × 10^6 cells/ml) was 1.6 µg/mL (≈ 6.07 µM) and the MIC (Shigella Sonnei EW 33; inoculum 1 × 10^8 cells/ml) was 1.6 µg/mL (≈ 6.07 µM). For the same compound, the MIC ([6]; FDA209, inoculum 1 × 10^6 cells/ml) was 3.1 µg/mL (≈ 11.8 µM), the MIC [6, 12] was 3.1 µg/mL (≈ 11.8 µM) and the MIC ([7]; IIDS23, inoculum 1 × 10^6 cells/ml) was greater than 100 µg/mL. The MIC ([7]; IIDS23, inoculum 1 × 10^8 cells/ml) was greater than 100 µg/mL.
Work on `CC1(C)SC2C(NC(=O)C(NC(=O)c3cn4c5c(c(N6CCNCC6)ccc5c3=O)CCC4)c3ccccc3)C(=O)N2C1C(=O)O` (stereo not drawn) [I] yielded an MIC (Escherichia Coli NIHJ; inoculum 1 × 10^8 cells/ml) of 1.6 µg/mL (≈ 2.48 µM), an MIC (Klebsiella pneumoniae; inoculum 1 × 10^8 cells/ml) of 0.8 µg/mL (≈ 1.24 µM) and an MIC (Proteus rettgeri NIH 96; [8]) of 0.4 µg/mL (≈ 0.62 µM). For the same compound, the MIC [1, 9] was 25 µg/mL (≈ 38.8 µM), the MIC ([2]; E2, inoculum 1 × 10^8 cells/ml) was 25 µg/mL (≈ 38.8 µM) and the MIC [3, 10] was 6.3 µg/mL (≈ 9.77 µM). It also gave an MIC [4, 11] of 0.2 µg/mL (≈ 0.31 µM), an MIC ([5]; inoculum 1 × 10^8 cells/ml) of 12.5 µg/mL (≈ 19.4 µM) and an MIC (Shigella Sonnei EW 33; inoculum 1 × 10^8 cells/ml) of 3.1 µg/mL (≈ 4.81 µM). The MIC [6, 12] was 0.1 µg/mL (≈ 0.155 µM).
For `CC1(C)SC2C(NC(=O)C(NC(=O)c3cn4c5c(c(N6CCN(S(C)(=O)=O)CC6)ccc5c3=O)CCC4)c3ccccc3)C(=O)N2C1C(=O)O` (stereo not drawn) [Compound J, 6-{2-[8-(4-Methanesulfonyl-1-piperazinyl)-6,7-dihydro-1-oxo-1H,5H--benzo[ij]quinolizine-2-carboxamido]-2-phenylacetamido}-3,3-dimethyl-7-oxo-4-thia-1-azabicyclo[3,2,0]-heptane-2-carboxylic acid, reference compound], the MIC (Escherichia Coli NIHJ; inoculum 1 × 10^8 cells/ml) was 3.1 µg/mL (≈ 4.29 µM), the MIC (Klebsiella pneumoniae; inoculum 1 × 10^8 cells/ml) was 6.3 µg/mL (≈ 8.72 µM) and the MIC (Proteus rettgeri NIH 96; [8]) was 12.5 µg/mL (≈ 17.3 µM). For the same compound, the MIC [1, 9] was 12.5 µg/mL (≈ 17.3 µM), the MIC ([2]; E2, inoculum 1 × 10^8 cells/ml) was 25 µg/mL (≈ 34.6 µM) and the MIC [3, 10] was 3.1 µg/mL (≈ 4.29 µM). For the same compound, the MIC [4, 11] was 3.1 µg/mL (≈ 4.29 µM), the MIC ([5]; inoculum 1 × 10^8 cells/ml) was 50 µg/mL (≈ 69.2 µM) and the MIC (Shigella Sonnei EW 33; inoculum 1 × 10^8 cells/ml) was 6.3 µg/mL (≈ 8.72 µM). The MIC [6, 12] was 0.8 µg/mL (≈ 1.11 µM).
